Laboratory results taken from article PMC10846744, “Cathelicidin peptide analogues inhibit EV71 infection through blocking viral entry and uncoating” (PLOS Pathogens, 2024).
Where no end group is shown, it is not given here.

Key:
EV71 virus = assay: EV71 infection inhibition on RD cells (VP1 immunoblot, viral titer, cell viability/CPE); type: cell-based, enterovirus 71 (EV71); conditions: for inhibition of EV71 viral VP1 protein expression: EV71 MOI = 1 pre-incubated with peptide 1 hr at room temperature, RD cells, immunoblotting, 24 h.p.i
Description: (§1) Synthetic peptides were purchased from Bioyears Co. Ltd. (Wuhan, China) with purity of more than 95% and dissolved in PBS. To test their inhibitory effects, the EV71 virus (MOI = 1) was incubated with the indicated amount of peptide at room temperature for 1 hr before the mixture was added to RD cells and maintained throughout the experiment. Cell viability, viral titer, or viral protein expression was determined 24 h.p.i. For the time-of-addition experiment, viruses were either pre-incubated with peptides (for the -2 and -1 time points), the mixture was added to the cells simultaneously (for 0 time point), or peptides were added after virus infection (for 1, 2, 4 and 7 h time points) and the virus/peptide was maintained in the culture before cell viability, viral titer, or viral protein expression was determined 24 h.p.i. The TCID50 of the virus was calculated according to the Reed-Muench method.
Cells were treated as described and harvested with LDS sample buffer (Thermo Fisher Scientific). After denaturation, samples were separated on 10% SDS-PAGE gel and then transferred to a polyvinylidene fluoride (PVDF) membrane. The proteins were blocked using 5% skimmed milk and probed with the corresponding antibodies. The following antibodies were used in this study: EV71 VP1 polyclonal antibody (GeneTex, Taiwan, China), β-Actin antibody (Zen BioScience, Chengdu, China), pan-Enterovirus Monoclonal antibody (Thermo Fisher Scientific). The chemiluminescence signals were visualized using ECL Advance reagents (Mishubio, China), and the images were acquired using the FUSION Solo S Imaging System (VILBER, France).
(§2) Cell viability assays were carried out using the Cell Titer-Glo Luminescent Cell Viability Assay Kit (Promega, Madison, WI) following the manufacturer’s instructions. Luminescence signals were measured using a BioTek Neo2 microplate reader.
For crystal violet staining, cells treated as indicated were first washed once with PBS, followed by fixation with 4% PFA. Cells were then stained with 0.5% crystal violet for 2 hrs before they were extensively washed with water.

coxsackievirus B5 (CVB5) = assay: CVB5 infection inhibition on RD cells (cell viability); type: cell-based; conditions: for inhibition of CVB5 infection: 0.3, 0.9, or 1.5 μM peptide pre-incubated with virus, RD cell viability 24 h.p.i (S1F Fig); for inhibition of CVB5 infection, higher concentrations: 3, 6, or 12 μM peptide pre-incubated with virus, RD cell viability 24 h.p.i (S1H Fig)
Description: as §1, §2
(A-D) Cell viability of RD cells treated with the indicated amount of DL-37 (A), LL-37 (B), LL-18 (C), or FF-18 (D) was plotted against peptide concentration, and the cytotoxicity was determined. (E) EV71 virus pre-incubated with indicated amounts of DL-37, and the cell viability was determined 24 h.p.i. ***, P<0.001. (F-G) CVB5 (F) or Echo7 (G) virus pre-incubated with 0.3, 0.9, or 1.5 μM of peptides were used to infect RD cells. Cell viability was determined 24 h.p.i. ***, P<0.001. (H-I) CVB5 (H) or Echo7 (I) virus pre-incubated with 3, 6, or 12 μM of peptides were used to infect RD cells. Cell viability was determined 24 h.p.i. ***, P<0.001. (TIF) Click here for additional data file.

[1] = tested on: NanoLuc-EV71 reporter virus / EV71 virus; assay: NanoLuc-EV71 reporter virus luciferase and viral RNA time course; type: cell-based, enterovirus 71 (EV71); conditions: 1.5 μM peptide pre-incubated with virus 1 hr, RD cells, luciferase at time points
Description: Fig 2 LL-18 and FF-18 inhibit EV71 infection at the early stages of infection. (A-B) NanoLuc-EV71 reporter virus (A) or EV71 virus (MOI = 1, B) was pre-incubated with 1.5 μM LL-18 or FF-18 for 1 hr before they were used to infect RD cells. Luciferase (A) or viral RNA (B) was determined at indicated time points. Viral RNAs were normalized to mock treated cells at 1 h.p.i. ***, P<0.001. (C-E) EV71 virus (MOI = 1) was either pre-incubated with 1.5 μM LL-18 before infection (-2 and -1 time points), added simultaneously with LL-18 (0 time point) or LL-18 was added at indicated time points post-infection (1, 2, 4, 7 time points) and viral VP1 expression (C), cell viability (D), or viral titer (E) was determined 24 h.p.i. ns, not significant; **, P<0.01; ***, P<0.001. (F-H) EV71 virus (MOI = 1) was either pre-incubated with 1.5 μM FF-18 before infection (-2 and -1 time points), added simultaneously with FF-18 (0 time point) or FF-18 was added at indicated time points post-infection (1, 2, 4, 7 time points) and viral VP1 expression (F), cell viability (G), or viral titer (H) was determined 24 h.p.i. ns, not significant; **, P<0.01; ***, P<0.001.
Full-length NanoLuc-EV71 reporter viruses and subgenomic EV71 replicon (SGR) were described previously. […] Nano luciferase and Renilla luciferase were measured with Nano-Glo or Renilla luciferase assay system from Promega (Madison, WI). […]

| Sequence | inhibition of EV71 infection (overall conclusion) (EV71 virus) | reduction of EV71 viral titer in supernatant (EV71 virus) | inhibition of EV71 viral VP1 protein expression (EV71 virus) | inhibition of CVB5 infection (coxsackievirus B5 (CVB5)) | inhibition of CVB5 infection, higher concentrations (coxsackievirus B5 (CVB5)) | inhibition of NanoLuc expression of NanoLuc-EV71 reporter virus [1] |
| --- | --- | --- | --- | --- | --- | --- |
| FRKSKEKIGKLFKRIVQRILDFLRNLV [LL-18] | could effectively inhibit EV71 infection | reduce the viral titers dose-dependently | inhibit EV71 viral protein expression in a dose-dependent manner | neither LL-18 nor FF-18 could inhibit CVB5 or Echo 7 infection | could still not inhibit CVB5 or Echo 7 infection | could inhibit the expression of NanoLuc as early as 4 hrs post-infection |
| FRKSKEKIGKFFKRIVQRIFDFLRNLV [FF-18] | could effectively inhibit EV71 infection | reduce the viral titers dose-dependently | inhibit EV71 viral protein expression in a dose-dependent manner | neither LL-18 nor FF-18 could inhibit CVB5 or Echo 7 infection | could still not inhibit CVB5 or Echo 7 infection | could inhibit the expression of NanoLuc as early as 4 hrs post-infection |
